Measurements: patent US9359377B2, “Substituted imidazo[1,2-a]imidazo[4′,5′:4,5]pyrrolo[1,2-d]pyrazines for treating respiratory syncytial virus infections” (Biota Scientific Management Pty Ltd., priority 2011, dated 2016)

Tested on: RSV A2
Experiment: RSV antiviral cytopathic effect (CPE) assay in HEp2 cells, MTT readout
Type: cell-based, respiratory syncytial virus
Details: HEp2 cells infected with RSV A2, moi ~0.01, 5 days, inhibition of CPE by 50%; read-out: Activity Range (RSV A2 EC50 mean values)
Description: RSV Antiviral Assay Protocol
Compounds of the invention were tested for their antiviral activity against respiratory syncytial virus. Cytopathic effect (CPE) assays were performed essentially as described in the literature (see, for example, Watanabe et al, 1994, J. Virological Methods, 48:257). Serial dilutions of the test compounds were made in 96 well plates. HEp2 cells (1.0×10^4 cells/well) were infected with RSV at a low multiplicity of infection (e.g. RSV A2 at an moi of ˜0.01) and added to plates to assess antiviral activity. Uninfected HEp2 cells were used to assess compound cytotoxicity. Assays were incubated for 5 days at 37° C. in a 5% CO2 atmosphere. The extent of CPE was determined via metabolism of the vital dye 3-(4,5-dimethylthiaxol-2-yl)-2,5-diphenyltetrazolium bromide (MTT). MTT (1 mg/ml) was added to each well and plates incubated for 2 hours incubation at 37° C. Wells were aspirated, iso-propanol (200 μL) was added and absorbance values read at 540/650 nm. Compound concentrations that inhibited CPE by 50% (EC50) and developed cytotoxicity (CC50) were calculated using non-linear regression analysis.
In the inventors' experience, replicate EC50 values usually fall within three standard deviations of the mean.

Molecule | EC50
11a-(4-fluorophenyl)-1-(furan-2-ylacetyl)-2,3,11,11a-tetrahydro-1H,5H-imidazo[1,2-a]thieno[3′,2′:4,5]pyrrolo[1,2-d]pyrazin-5-one [Compound 22] | > 10000 nM

Same assay, conditions: human respiratory syncytial virus, HEp-2, 120 h; HEp2 cells infected with RSV A2, moi ~0.01, 5 days, inhibition of CPE by 50%; read-out: Activity Range (RSV A2 EC50 mean values)

Molecule | EC50
O=C1c2cc3ccsc3n2CC2(c3ccc(F)cc3)N1CCN2S(=O)(=O)Cc1ccccc1 (stereo not drawn) [Compound 26, 1-(benzylsulfonyl)-11a-(4-fluorophenyl)-2,3,11,11a-tetrahydro-1H,5H-imidazo[1,2-a]thieno[3′,2′:4,5]pyrrolo[1,2-d]pyrazin-5-one] | > 10000 nM
COc1ccc(C23Cn4c(cc5[nH]c(C)nc54)C(=O)N2CCN3C(=O)c2conc2C)cc1 (stereo not drawn) [Compound 2, 5a-(4-methoxyphenyl)-2-methyl-6-[(3-methyl-1,2-oxazol-4-yl)carbonyl]-5a,6,7,8-tetrahydro-5H-imidazo[1,2-a]imidazo[4′,5′:4,5]pyrrolo[1,2-d]pyrazin-10(1H)-one] | ≤ 49 nM
Cc1ccc(C23Cn4c(cc5ccsc54)C(=O)N2CCN3C(=O)c2conc2C)cc1 (stereo not drawn) [Compound 7, 1-[(3-methyl-1,2-oxazol-4-yl)carbonyl]-11a-(4-methylphenyl)-2,3,11,11 a-tetrahydro-1H,5H-imidazo[1,2-a]thieno[3′,2′:4,5]pyrrolo[1,2-d]pyrazin-5-one] | ≤ 49 nM
COc1ccc(C23Cn4c(cc5ccccc54)C(=O)N2CCN3C(=O)c2conc2C)cc1 (stereo not drawn) [Compound 4, 12a-(4-methoxyphenyl)-1-[(3-methyl-1,2-oxazol-4-yl)carbonyl]-2,3,12,12a-tetrahydro-1H,5H-imidazo[1′,2′:4,5]pyrazino[1,2-a]indol-5-one] | ≤ 49 nM
O=C(CC1CCCCC1)N1CCN2C(=O)c3cc4ccsc4n3CC12c1ccc(F)cc1 (stereo not drawn) [Compound 19, l-(cyclohexylacetyl)-11a-(4-fluorophenyl)-2,3,11,11a-tetrahydro-1H,5H-imidazo[1,2-a]thieno[3′,2′:4,5]pyrrolo[1,2-d]pyrazin-5-one] | > 10000 nM
O=C(c1ccco1)N1CCN2C(=O)c3cc4ccsc4n3CC12c1ccc(F)cc1 (stereo not drawn) [Compound 15, 11a-(4-fluorophenyl)-1-(furan-2-ylcarbonyl)-2,3,11,11a-tetrahydro-1H,5H-imidazo[1,2-a]thieno[3′,2′:4,5]pyrrolo[1,2-d]pyrazin-5-one] | > 10000 nM
Cc1ccc(C23Cn4c(cc5cccnc54)C(=O)N2CCN3C(=O)c2conc2C)cc1 (stereo not drawn) [Compound 10, 1-[(3-methyl-1,2-oxazol-4-yl)carbonyl]-12a-(4-methylphenyl)-2,3,12,12a-tetrahydro-1H,5H-imidazo[1,2-a]pyrido[3′,2′:4,5]pyrrolo[1,2-d]pyrazin-5-one] | ≤ 49 nM
Cc1nocc1C(=O)N1CCN2C(=O)c3cc4cccnc4n3CC12c1ccc(F)cc1 (stereo not drawn) [Compound 11, 12a-(4-fluorophenyl)-1-[(3-methyl-1,2-oxazol-4-yl)carbonyl]-2,3,12,12a-tetrahydro-1H,5H-imidazo[1,2-a]pyrido[3′,2′:4,5]pyrrolo[1,2-d]pyrazin-5-one] | ≤ 49 nM
Cc1ccc(C23Cn4c(cc5ccsc54)C(=O)N2CCN3C(=O)c2conc2C)cn1 (stereo not drawn) [Compound 13, 1-[(3-methyl-1,2-oxazol-4-yl)carbonyl]-11a-(6-methylpyridin-3-yl)-2,3,11,11a-tetrahydro-1H,5H-imidazo[1,2-a]thieno[3′,2′:4,5]pyrrolo[1,2-d]pyrazin-5-one] | ≤ 49 nM
Cn1nc(C(C)(C)C)cc1C(=O)N1CCN2C(=O)c3cc4ccsc4n3CC12c1ccc(F)cc1 (stereo not drawn) [Compound 20, 1-[(3-tert-butyl-1-methyl-1H-pyrazol-5-yl)carbonyl]-11a-(4-fluorophenyl)-2,3,11,11a-tetrahydro-1H,5H-imidazo[1,2-a]thieno[3′,2′:4,5]pyrrolo[1,2-d]pyrazin-5-one] | > 10000 nM
CC(C)C(=O)N1CCN2C(=O)c3cc4ccsc4n3CC21c1ccc(F)cc1 (stereo not drawn) [Compound 17, 11a-(4-fluorophenyl)-1-(2-methylpropanoyl)-2,3,11,11a-tetrahydro-1H,5H-imidazo[1,2-a]thieno[3′,2′:4,5]pyrrolo[1,2-d]pyrazin-5-one] | > 10000 nM
COc1ccc(C23Cn4c(cc5ccsc54)C(=O)N2CCN3C(=O)c2conc2C)cc1 (stereo not drawn) [Compound 1, 11a-(4-methoxyphenyl)-1-[(3-methyl-1,2-oxazol-4-yl)carbonyl]-2,3,11,11a-tetrahydro-1H,5H-imidazo[1,2-a]thieno[3′,2′:4,5]pyrrolo[1,2-d]pyrazin-5-one] | ≤ 49 nM
O=C(NCc1ccccc1)N1CCN2C(=O)c3cc4ccsc4n3CC12c1ccc(F)cc1 (stereo not drawn) [Compound 23, N-benzyl-11a-(4-fluorophenyl)-5-oxo-2,3,11,11a-tetrahydro-1H,5H-imidazo[1,2-a]thieno[3′,2′:4,5]pyrrolo[1,2-d]pyrazine-1-carboxamide] | > 10000 nM
Cc1nocc1C(=O)N1CCN2C(=O)c3cc4ccsc4n3CC12c1ccc(F)cc1 (stereo not drawn) [Compound 6, 11a-(4-fluorophenyl)-1-[(3-methyl-1,2-oxazol-4-yl)carbonyl]-2,3,11,11a-tetrahydro-1H,5H-imidazo[1,2-a]thieno[3′,2′:4,5]pyrrolo[1,2-d]pyrazin-5-one] | ≤ 49 nM
O=C1c2cc3ccsc3n2CC2(c3ccc(F)cc3)N1CCN2S(=O)(=O)c1ccccc1 (stereo not drawn) [Compound 25, 11a-(4-fluorophenyl)-1-(phenylsulfonyl)-2,3,11,11a-tetrahydro-1H,5H-imidazo[1,2-a]thieno[3′,2′:4,5]pyrrolo[1,2-d]pyrazin-5-one] | > 10000 nM
COc1ccc(C23Cn4c(cc5sccc54)C(=O)N2CCN3C(=O)c2conc2C)cc1 (stereo not drawn) [Compound 5, 5a-(4-methoxyphenyl)-6-[(3-methyl-1,2-oxazol-4-yl)carbonyl]-5a,6,7,8-tetrahydro-5H,10H-imidazo[1,2-a]thieno[2′,3′:4,5]pyrrolo[1,2-d]pyrazin-10-one] | 100 to 499 nM
O=C1c2cc3ccsc3n2CC2(c3ccc(F)cc3)N1CCN2S(=O)(=O)c1ccc([N+](=O)[O-])cc1 (stereo not drawn) [Compound 27, 11a-(4-fluorophenyl)-1-[(4-nitrophenyl)sulfonyl]-2,3,11,11a-tetrahydro-1H,5H-imidazo[1,2-a]thieno[3′,2′:4,5]pyrrolo[1,2-d]pyrazin-5-one] | 500 to 10000 nM
Cc1nocc1C(=O)N1CCN2C(=O)c3cc4ncccc4n3CC12c1ccc(F)cc1 (stereo not drawn) [Compound 12, 12a-(4-fluorophenyl)-1-[(3-methyl-1,2-oxazol-4-yl)carbonyl]-2,3,12,12a-tetrahydro-1H,5H-imidazo[1,2-a]pyrido[2′,3′:4,5]pyrrolo[1,2-d]pyrazin-5-one] | 100 to 499 nM
COc1ccc(C23Cn4c(cc5occc54)C(=O)N2CCN3C(=O)c2conc2C)cc1 (stereo not drawn) [Compound 3, 5a-(4-methoxyphenyl)-6-[(3-methyl-1,2-oxazol-4-yl)carbonyl]-5a,6,7,8-tetrahydro-5H,10H-furo[2′,3′:4,5]pyrrolo[1,2-a]imidazo[1,2-d]pyrazin-10-one] | 50 to 99 nM
Cc1ocnc1C(=O)N1CCN2C(=O)c3cc4ccsc4n3CC12c1ccc(F)cc1 (stereo not drawn) [Compound 21, 11a-(4-fluorophenyl)-1-[(5-methyl-1,3-oxazol-4-yl)carbonyl]-2,3,11,11a-tetrahydro-1H,5H-imidazo[1,2-a]thieno[3′,2′:4,5]pyrrolo[1,2-d]pyrazin-5-one] | 100 to 499 nM
COc1ccc(C23Cn4c(cc5ncccc54)C(=O)N2CCN3C(=O)c2conc2C)cc1 (stereo not drawn) [Compound 9, 12a-(4-methoxyphenyl)-1-[(3-methyl-1,2-oxazol-4-yl)carbonyl]-2,3,12,12a-tetrahydro-1H,5H-imidazo[1,2-a]pyrido[2′,3′:4,5]pyrrolo[1,2-d]pyrazin-5-one] | 100 to 499 nM
COc1ccc(C23Cn4c(cc5cccnc54)C(=O)N2CCN3C(=O)c2conc2C)cc1 (stereo not drawn) [Compound 8, 12a-(4-methoxyphenyl)-1-[(3-methyl-1,2-oxazol-4-yl)carbonyl]-2,3,12,12a-tetrahydro-1H,5H-imidazo[1,2-a]pyrido[3′,2′:4,5]pyrrolo[1,2-d]pyrazin-5-one] | ≤ 49 nM
O=C1c2cc3ccsc3n2CC2(c3ccc(F)cc3)N1CCN2C(=O)C1CCCCC1 (stereo not drawn) [Compound 14, 1-(cyclohexylcarbonyl)-11a-(4-fluorophenyl)-2,3,11,11a-tetrahydro-1H,5H-imidazo[1,2-a]thieno[3′,2′:4,5]pyrrolo[1,2-d]pyrazin-5-one] | > 10000 nM
O=C1c2cc3ccsc3n2CC2(c3ccc(F)cc3)N1CCN2C(=O)C1CC1 (stereo not drawn) [Compound 16, 1-(cyclopropylcarbonyl)-11a-(4-fluorophenyl)-2,3,11,11a-tetrahydro-1H,5H-imidazo[1,2-a]thieno[3′,2′:4,5]pyrrolo[1,2-d]pyrazin-5-one] | > 10000 nM
O=C(NC1CCCCC1)N1CCN2C(=O)c3cc4ccsc4n3CC12c1ccc(F)cc1 (stereo not drawn) [Compound 24, N-cyclohexyl-11a-(4-fluorophenyl)-5-oxo-2,3,11,11a-tetrahydro-1H,5H-imidazo[1,2-a]thieno[3′,2′:4,5]pyrrolo[1,2-d]pyrazine-1-carboxamide] | > 10000 nM
Cc1cc(C(=O)N2CCN3C(=O)c4cc5ccsc5n4CC23c2ccc(F)cc2)no1 (stereo not drawn) [Compound 18, 11a-(4-fluorophenyl)-1-[(5-methyl-1,2-oxazol-3-yl)carbonyl]-2,3,11,11a-tetrahydro-1H,5H-imidazo[1,2-a]thieno[3′,2′:4,5]pyrrolo[1,2-d]pyrazin-5-one] | > 10000 nM
